For this assay, the target named is recombinant human CCR5 receptor (Homo sapiens, UniProt P51681). Description: in vitro radioligand binding assay: inhibition of the binding of iodinated MIP-1α. The note with it: membranes from Chinese hamster ovary cells expressing CCR5; 0.1 nM iodinated MIP-1α; average if tested more than once.
recombinant human CCR5 receptor, sequence (P51681 whole entry): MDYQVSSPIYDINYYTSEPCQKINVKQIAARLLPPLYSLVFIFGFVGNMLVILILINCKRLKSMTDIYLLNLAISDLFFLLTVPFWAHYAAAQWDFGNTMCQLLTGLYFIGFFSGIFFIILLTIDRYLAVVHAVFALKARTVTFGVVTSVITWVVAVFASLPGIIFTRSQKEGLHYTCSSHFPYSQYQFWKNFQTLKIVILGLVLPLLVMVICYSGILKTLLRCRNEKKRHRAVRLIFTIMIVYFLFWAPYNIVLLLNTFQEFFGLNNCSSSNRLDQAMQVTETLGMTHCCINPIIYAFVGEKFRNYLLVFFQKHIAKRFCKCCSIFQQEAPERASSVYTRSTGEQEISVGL

Procedure: The ability of compounds to inhibit the binding of MIP-1α was assessed by an in vitro radioligand binding assay. Membranes were prepared from Chinese hamster ovary cells which expressed the recombinant human CCR5 receptor. These membranes were incubated with 0.1 nM iodinated MIP-1α, scintillation proximity beads and various concentrations of the compounds of the invention in 96-well plates. The amount of iodinated MMP-1α bound to the receptor was determined by scintillation counting. Competition curves were obtained for compounds and the concentration of compound which displaced 50% of bound iodinated MIP-1α was calculated (IC50).

What is called IC50 is the concentration that gives 50% inhibition. On to `CCN(C(=O)Cc1ccc(S(C)(=O)=O)cc1)C1CCN(CCC(c2ccccc2)N2CCN(C)CC2)CC1` (centres unmarked) [6 of Table I], for which the IC50 is 363 nM.
Then `CCN(C(=O)Cc1ccc(S(C)(=O)=O)cc1)C1CCN(CCC(c2ccccc2)N2CCN(S(=O)(=O)CC(F)(F)F)CC2)CC1` (centres unmarked) [15 of Table II], with 5.62 nM.

The values above are taken from patent publication US7192973B2, “Piperidine derivatives and their use as modulators of chemokine receptor activity (especially CCR5)” (AstraZeneca AB, priority 2001, dated 2007).
